Target: T1, recombinant human Flag-tagged PARP7 (amino acids 456-657) (Homo sapiens, UniProt Q7Z3E1)
T1 construct: recombinant human Flag-tagged PARP7 (amino acids 456-657)
T1 sequence (Q7Z3E1 456-657): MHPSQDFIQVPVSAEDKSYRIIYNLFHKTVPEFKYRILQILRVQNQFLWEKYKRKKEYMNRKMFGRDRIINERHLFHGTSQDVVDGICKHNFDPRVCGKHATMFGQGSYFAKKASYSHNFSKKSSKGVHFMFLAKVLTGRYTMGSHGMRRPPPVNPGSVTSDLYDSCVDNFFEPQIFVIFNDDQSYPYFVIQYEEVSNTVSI
Experiment: PARP7 biochemical DELFIA assay (auto-MARylation)
Settings: DELFIA readout, IC50 class
Experimental: A suitable assay may be conducted using 10-30 nM PARP7 (amino acids 456-657), 2 μM biotin-NAD assay solution in 20 mM HEPES (pH 7.5), 100 mM NaCl, 2 mM DTT, 0.1% BSA (w/v), 0.02% Tween (v/v) assay buffer. MARylation may take place for 2-3 h at room temperature and may be detected using a dissociation-enhanced lanthanide fluorescence immunoassay (DELFIA) readout. This assay format has been recently utilised for screening for modulators of PARP7 and other MonoPARP enzymes ([…]. et al. Forced Self-Modification Assays as a Strategy to Screen MonoPARP Enzymes. SLAS Discovery. 25; 241-252, (2020)). A particularly suitable assay is described in the Examples below. Optiplate HB 384-well plates were coated with anti-FLAG antibody, supplied as a 4 mg/ml solution, using a Na2CO3/HCO3 coating buffer at pH 9.6, overnight at 4° C., in order to achieve a final immobilisation per well of 0.3 μg. Wells were then washed 3× in coating wash buffer (PBS/0.05% Tween (v/v)), blocked with 2% BSA (w/v) in coating wash buffer and washed 3 further times prior to assay. For the assay 20 μl of 12.5-37.5 nM recombinant human Flag-tagged PARP7 (amino acids 456-657) was added to each well of the 384-well plate for 30 min at room temperature. 50 nl of test compound in DMSO was added using pintool technology and plates were incubated for a further 30 min at room temperature. 5 μl of 15 μM biotin-NAD^+ assay solution in 20 mM HEPES (pH 7.5), 100 mM NaCl, 2 mM DTT, 0.1% BSA (w/v), 0.02% Tween (v/v) assay buffer was then added and MARylation proceeded for 2-3 h at room temperature prior to the addition of 5 μl of 12 mM NAD^+ quenching solution. After 30 min at room temperature, assay solution was removed and following washing 5 times, 100 μl of a 1:1000 dilution of DELFIA Eu-N1 Streptavidin reagent was added. Plates were then incubated for 30 min at room temperature. Reaction mixture was removed and plates washed 5 times prior to the addition of 25 μl DELFIA enhancement solution. Following incubation for 30 min at room temperature, fluorescence was read on either an Envision or Pherastar FS (Ex337 nm, Em620 nm).

Structure (SMILES) | IC50 [nM]
CC(COCCC(=O)N1CCN(c2ncccc2Cl)CC1)n1nc(C(F)(F)F)c2c(=O)[nH]ncc21 (single isomer, unassigned) [Compound 356] | 100 to 1000
Cc1c(C)n(C(C)COCCC(=O)N2CCN(c3ncc(C(F)(F)F)cn3)CC2)c2cn[nH]c(=O)c12 (single isomer, unassigned) [Compound 365] | ≤ 100
Cc1c(C)n(C(C)COCCC(=O)N2CCN(c3ncc(C(F)(F)F)cn3)CC2)c2cn[nH]c(=O)c12 (single isomer, unassigned) [Compound 366] | ≤ 100
CC(COCCC(=O)N1CCN(c2ncccc2F)CC1)n1nc(C(F)(F)F)c2c(=O)[nH]ncc21 (single isomer, unassigned) [Compound 368] | 100 to 1000
CC1CN(c2ncc(C(F)(F)F)cn2)CCN1C(=O)CCOCCn1cc(C(F)(F)F)c2c(=O)[nH]ncc21 (single isomer, unassigned) [Compound 370] | ≤ 100
CC1CN(c2ncc(C(F)(F)F)cn2)CCN1C(=O)CCOCCn1cc(C(F)(F)F)c2c(=O)[nH]ncc21 (single isomer, unassigned) [Compound 371] | ≤ 100
CC(COCCC(=O)N1CCN(c2ccc(Cl)cn2)CC1)n1cc(C(F)(F)F)c2c(=O)[nH]ncc21 (single isomer, unassigned) [Compound 375] | ≤ 100
CC(COCCC(=O)N1CCN(c2ncc(OC(F)(F)F)cn2)CC1)n1nc(C(F)(F)F)c2c(=O)[nH]ncc21 (single isomer, unassigned) [Compound 387] | ≤ 100
CC(COCCC(=O)N1CCN(c2nnc(C(F)(F)F)[nH]2)CC1)n1nc(C(F)(F)F)c2c(=O)[nH]ncc21 (single isomer, unassigned) [Compound 393] | ≤ 100
CC(COCCC(=O)N1CCN(c2ncc(C(F)(F)F)cn2)CC1)n1cc(C(F)F)c2c(=O)[nH]ncc21 (single isomer, unassigned) [Compound 395, 3-(difluoromethyl)-1-(1-(3-oxo-3-(4-(5-(trifluoromethyl)pyrimidin-2-yl)piperazin-1-yl)propoxy)propan-2-yl)-1,5-dihydro-4H-pyrrolo[2,3-d]pyridazin-4-one] | ≤ 100
CC(COCCC(=O)N1CCN(c2ncc(C(F)(F)F)cn2)CC1)n1cc(C(F)F)c2c(=O)[nH]ncc21 (single isomer, unassigned) [Compound 396, 3-(difluoromethyl)-1-(1-(3-oxo-3-(4-(5-(trifluoromethyl)pyrimidin-2-yl)piperazin-1-yl)propoxy)propan-2-yl)-1,5-dihydro-4H-pyrrolo[2,3-d]pyridazin-4-one] | ≤ 100
CC(COCCC(=O)N1CCN(c2ncccc2C#N)CC1)n1nc(C(F)(F)F)c2c(=O)[nH]ncc21 (single isomer, unassigned) [Compound 405] | 100 to 1000

Results, then the compound that gave them:

IC50 [nM] | Structure (SMILES)
≤ 100 | CC(COCCC(=O)N1CCN(c2ncccc2C#N)CC1)n1nc(C(F)(F)F)c2c(=O)[nH]ncc21 (single isomer, unassigned) [Compound 406]
≤ 100 | CC(COCCn1cc(C(F)(F)F)c2c(=O)[nH]ncc21)C(=O)N1CCN(c2ncc(C(F)(F)F)cn2)CC1 (single isomer, unassigned) [Compound 411]
100 to 1000 | CC(COCCC(=O)N1CCN(c2ncc(C#N)cn2)CC1)c1ccc(Cl)c2c(=O)[nH]ncc12 (single isomer, unassigned) [Compound 414]
≤ 100 | CC(COCCC(=O)N1CCN(c2ccc(C#N)cn2)CC1)c1ccc(Cl)c2c(=O)[nH]ncc12 (single isomer, unassigned) [Compound 416]
≤ 100 | CC(COCCC(=O)N1CCN(c2cc(F)c(F)cn2)CC1)n1nc(C(F)(F)F)c2c(=O)[nH]ncc21 (single isomer, unassigned) [Compound 418]
≤ 100 | CC(COCCC(=O)N1CCN(c2cc(F)c(F)cn2)CC1)n1nc(C(F)(F)F)c2c(=O)[nH]ncc21 (single isomer, unassigned) [Compound 419]

— US20240217968A1, “PHARMACEUTICAL COMPOUND” (DUKE STREET BIO LIMITED, priority 2021, published 2024)
